Where only a bound is given, the exact number is not on record here.

Assay [1] addresses Aspergillus awamori glucoamylase (Aspergillus awamori, UniProt P69327). To be noted: Sierks and Svensson, 1993, cited from earlier work.
Assay [2] concerns Trichoderma reesei glucoamylase. The settings on record: Fagerstrom and Kalkkinen, 1995, cited from earlier work.
Assay [3] deals with T1, Thielavia terrestris ATCC 20627 glucoamylase, wild type, recombinant (expressed in Aspergillus oryzae), SEQ ID NO:2 (Thermothielavioides terrestris, UniProt G2QUZ8).
T1 construct: N-terminus identical to native enzyme
The assay is described as follows: Catalytic constants of recombinant Thielavia terrestris glucoamylase, maltotriose hydrolysis (glucose oxidase assay). It is filed as biochemical.
Method: The glucose-releasing activity of glucoamylase (on maltooligosaccharide) was measured using a glucose oxidase assay kit (Sigma Chemical Co., St. Louis, Mo.) according to the manufacturer's instructions. […] To obtain the correct glucoamylase activity, glucoamylase samples were subjected to ultrafiltration and the resulting retentate (glucoamylase enriched) and filtrate (containing no glucoamylase) were assayed by the glucose oxidase kit. The background substrate oxidation was then subtracted from the data obtained for the glucoamylase samples. Another glucoamylase activity assay comprised of glucoamylase hydrolysis on maltose and glucose detection by a Glucose GOD-Perid kit (Boehringer Mannheim, Indianapolis, Ind.) according to the manufacturer's instructions. In this assay, 900 µl of 50 mM sodium acetate, pH 4.3, containing 1% maltose, pre-incubated for 5 minutes at 37° C., was mixed with 20 μl of glucoamylase solution in 50 mM sodium acetate pH 4.3. After a 10 minute incubation, 80 μl of 1 M NaOH was added to inactivate glucoamylase and the mixture was chilled on ice to prevent the non-enzymatic, basic hydrolysis of maltose. A 20 μl volume of the solution was then mixed with 200 μl of GOD-Perid solution. After a 30 minute incubation at room temperature, the absorbance at 650 nm was measured. The Prism program (from GraphPad, San Diego, Calif.) was used to calculate Km and Vmax by non-linear regression. The parameter kcat (mole glucose produced per mole glucoamylase per min) was calculated by kcat ={(Vmax +1.01)/0.30}/[enzyme], where the units were 0.001 Abs /minute for Vmax and μM for [enzyme]. The 124 mM^-1 cm^-1 value, calculated from the amount of tyrosine, phenylalanine, and cysteine as deduced from the DNA sequence, was used for the extinction coefficient of Thielavia terrestris glucoamylase at 280 nm.
Then 50 μl of Sigma's GO glucose oxidase assay reagent and 25 μl of H2 O were added and the absorption change was monitored at 490 nm.
The temperature-activity profile was measured in quadruplicate at 4, 22, 30, 37, 50, 60, 70, and 80° C. […] After 30 minutes, 5 μl Thielavia terrestris glucoamylase stock (0.11 mg/ml) was added and the solution was kept at the same temperature. After 20 minutes, the solutions were chilled (in ice-water) and briefly centrifuged (in 0.7-ml microcentrifuge tubes). Then 25 μl of these solutions were subjected to the glucoamylase assay by mixing with 50 μl of glucose oxidase reagent and 25 μl of H2 O as described above.

Assay [4] has as its system Aspergillus spp K-27 glucoamylase. The settings on record: Abe et al., 1990, cited from earlier work.

T1 sequence (G2QUZ8 20-638): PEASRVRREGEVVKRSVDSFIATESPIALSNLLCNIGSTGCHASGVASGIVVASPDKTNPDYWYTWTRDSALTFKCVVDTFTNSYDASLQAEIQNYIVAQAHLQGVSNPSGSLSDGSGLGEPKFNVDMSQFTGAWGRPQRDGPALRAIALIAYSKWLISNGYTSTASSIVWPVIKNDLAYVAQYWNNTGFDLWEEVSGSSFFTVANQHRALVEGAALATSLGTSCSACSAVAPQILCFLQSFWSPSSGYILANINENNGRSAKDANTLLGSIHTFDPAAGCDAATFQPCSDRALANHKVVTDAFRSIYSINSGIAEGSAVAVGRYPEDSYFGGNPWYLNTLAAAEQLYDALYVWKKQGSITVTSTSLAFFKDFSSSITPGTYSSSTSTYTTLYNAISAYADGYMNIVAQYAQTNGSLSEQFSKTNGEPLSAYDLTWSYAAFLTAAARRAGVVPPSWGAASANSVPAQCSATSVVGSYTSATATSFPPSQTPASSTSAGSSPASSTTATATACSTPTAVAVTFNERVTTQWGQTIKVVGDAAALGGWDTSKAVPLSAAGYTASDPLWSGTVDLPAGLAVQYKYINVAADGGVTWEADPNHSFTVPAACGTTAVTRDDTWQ
Aspergillus awamori glucoamylase, sequence (P69327 25-640): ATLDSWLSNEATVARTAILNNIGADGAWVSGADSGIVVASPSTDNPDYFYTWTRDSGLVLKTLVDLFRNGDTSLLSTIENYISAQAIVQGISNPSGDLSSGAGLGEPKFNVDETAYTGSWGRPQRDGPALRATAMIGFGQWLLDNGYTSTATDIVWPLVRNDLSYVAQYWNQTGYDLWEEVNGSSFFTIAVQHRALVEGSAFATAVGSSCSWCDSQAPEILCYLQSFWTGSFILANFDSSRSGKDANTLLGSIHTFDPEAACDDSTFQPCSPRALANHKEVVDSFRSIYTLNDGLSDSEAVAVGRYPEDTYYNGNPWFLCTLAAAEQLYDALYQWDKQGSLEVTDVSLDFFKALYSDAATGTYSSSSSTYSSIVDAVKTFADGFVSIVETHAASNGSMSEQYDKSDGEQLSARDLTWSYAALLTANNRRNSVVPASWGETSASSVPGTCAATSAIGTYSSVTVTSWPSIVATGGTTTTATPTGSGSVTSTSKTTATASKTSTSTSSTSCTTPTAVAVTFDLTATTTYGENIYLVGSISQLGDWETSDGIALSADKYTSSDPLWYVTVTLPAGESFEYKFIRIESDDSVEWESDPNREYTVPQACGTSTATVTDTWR

`OC[C@H]1O[C@H](O[C@H]2[C@H](O)[C@@H](O)[C@@H](O[C@H]3[C@H](O)[C@@H](O)C(O)O[C@@H]3CO)O[C@@H]2CO)[C@H](O)[C@@H](O)[C@@H]1O` (stereo partly shown) [maltotriose]: the kcat (commonly the number of substrate molecules converted per active site and unit of time at saturation) in assay [1] (maltotriose) was 61.67 s⁻¹; in assay [2] (maltotriose), 20 s⁻¹; in assay [3] (at pH 4 from 40° C. to 70° C.), > 10^5 /min; in assay [3] (from pH 3 to 7 at 20° C.), > 10^5 /min; in assay [4] (maltotriose), 65 s⁻¹. The Km (as a rule, the substrate concentration at which the rate is half of its maximum) in assay [1] (read-out: Km for maltotriose) is 730 µM; in assay [2] (read-out: Km for maltotriose), 500 µM; in assay [3] (at pH 4 from 4° C. to 80° C.) it was less than 1000 µM; in assay [3] (from pH 3 to 11 at 20° C.), less than 1000 µM; in assay [4] (read-out: Km for maltotriose), 450 µM.

The values above are taken from patent US6309872A, “Polypeptides having glucoamylase activity and nucleic acids encoding same” (Novozymes Biotech, Inc, priority 2000, dated 2001).
